Source: patent US12655132B2, “Crystal forms of a pyridazinone TRPC inhibitor” (GFB (ABC), LLC, priority 2019, dated 2026)

Experiment: Stability of crystalline form E at different relative humidities over 3-14 days
Type: physicochemical
Description: Crystalline form E was also tested for stability at different relative humidities over 3-14 days. The results are shown below in Table 3.1

## O=c1[nH]ncc(N2CCc3c(ncnc3Oc3ccc(F)cc3C(F)(F)F)C2)c1Cl [Crystalline Form E, 4-chloro-5-(4-(4-fluoro-2-(trifluoromethyl)phenoxy)-5,8-dihydropyrido[3,4-d]pyrimidin-7(6H)-yl)pyridazin-3(2H)-one]
30% RH, 3 days
  Stability of Crystalline Form E at Different Relative Humidities (RH): crystal type found: Type E
30% RH, 7 days
  Stability of Crystalline Form E at Different Relative Humidities (RH): crystal type found: Type E
30% RH, 14 days
  Stability of Crystalline Form E at Different Relative Humidities (RH): crystal type found: Type E + Type F
50% RH, 3 days
  Stability of Crystalline Form E at Different Relative Humidities (RH): crystal type found: Type E
50% RH, 7 days
  Stability of Crystalline Form E at Different Relative Humidities (RH): crystal type found: Type E
50% RH, 14 days
  Stability of Crystalline Form E at Different Relative Humidities (RH): crystal type found: Type E
60% RH, 3 days
  Stability of Crystalline Form E at Different Relative Humidities (RH): crystal type found: Type E
60% RH, 7 days
  Stability of Crystalline Form E at Different Relative Humidities (RH): crystal type found: Type E
60% RH, 14 days
  Stability of Crystalline Form E at Different Relative Humidities (RH): crystal type found: Type E
92.5% RH, 3 days
  Stability of Crystalline Form E at Different Relative Humidities (RH): crystal type found: Type E
92.5% RH, 7 days
  Stability of Crystalline Form E at Different Relative Humidities (RH): crystal type found: Type E
92.5% RH, 14 days
  Stability of Crystalline Form E at Different Relative Humidities (RH): crystal type found: Type E
Storage for 14 days at 30% relative humidity, appearance of Type F
  Stability at low relative humidity (conclusion in words): unstable
